Here are results for one compound from ChEMBL document CHEMBL4130451, “Design and Synthesis of N-Aryl Phenoxyethoxy Pyridinones as Highly Selective and CNS Penetrant mGlu3 NAMs” (ACS Med Chem Lett, 2017).

pIC50: −log10 of the molar value.

Data set [1] has as its target Metabotropic glutamate receptor 3 (Rattus norvegicus) (UniProt P31422). In words: Negative allosteric modulation of rat mGlu3 receptor expressed in TREX cells coexpressing Galpha15 assessed as inhibition of glutamate induced-calcium mobilization by measuring minimum glutamate response preincubated for 2.3 mins followed by glutamate addition measured for 2.6 mins by Fluo-4 AM dye based fluorescence assay relative to glutamate. The data set is classed as functional, cell-based.

The target of a further data set is Cytochrome P450 3A4 (Homo sapiens, UniProt P08684). Briefly: Inhibition of CYP3A4 in human liver microsomes using midazolam as substrate after 15 mins in presence of NADPH by LC/MS/MS analysis. The data set is classed as ADME.
The target in another data set is Cytochrome P450 2C9 (Homo sapiens, UniProt P11712). In words: Inhibition of CYP2C9 in human liver microsomes using diclofenac as substrate after 15 mins in presence of NADPH by LC/MS/MS analysis. The data set is classed as ADME.
Chain of Cytochrome P450 2C9 (P11712 whole entry): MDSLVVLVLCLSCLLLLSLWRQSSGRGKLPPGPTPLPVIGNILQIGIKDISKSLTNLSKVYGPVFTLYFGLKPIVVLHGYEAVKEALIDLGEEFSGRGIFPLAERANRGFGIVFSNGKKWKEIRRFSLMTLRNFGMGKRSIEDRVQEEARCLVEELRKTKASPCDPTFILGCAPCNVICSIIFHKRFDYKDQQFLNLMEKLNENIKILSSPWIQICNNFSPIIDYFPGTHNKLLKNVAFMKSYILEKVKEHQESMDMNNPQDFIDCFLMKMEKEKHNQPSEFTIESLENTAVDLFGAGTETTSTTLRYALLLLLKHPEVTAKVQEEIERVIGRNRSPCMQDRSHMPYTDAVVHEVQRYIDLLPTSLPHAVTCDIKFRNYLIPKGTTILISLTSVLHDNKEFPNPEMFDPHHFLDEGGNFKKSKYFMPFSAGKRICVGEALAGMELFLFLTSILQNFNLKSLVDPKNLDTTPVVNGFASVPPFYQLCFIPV
Data set [2] in a line: Fraction unbound in human plasma at 5 uM after 4 hrs by equilibrium dialysis based LC/MS/MS analysis. It is filed as ADME, cell-free.
Data set [3] can be described thus: Ratio of drug uptake in Harlan CD-1 mouse brain at 3 mg/kg, ip to IC50 for negative allosteric modulation of rat mGlu3 receptor expressed in TREX cells coexpressing Galpha15. It is filed as ADME, organism-based. Conditions: in vivo.
For data set [4], the target named is Adenosine receptor A2a (Homo sapiens) (UniProt P29274). Briefly: Inhibition of human adenosine A2a receptor at 10 uM relative to control.
Chain of Adenosine receptor A2a (Homo sapiens) (P29274 whole entry): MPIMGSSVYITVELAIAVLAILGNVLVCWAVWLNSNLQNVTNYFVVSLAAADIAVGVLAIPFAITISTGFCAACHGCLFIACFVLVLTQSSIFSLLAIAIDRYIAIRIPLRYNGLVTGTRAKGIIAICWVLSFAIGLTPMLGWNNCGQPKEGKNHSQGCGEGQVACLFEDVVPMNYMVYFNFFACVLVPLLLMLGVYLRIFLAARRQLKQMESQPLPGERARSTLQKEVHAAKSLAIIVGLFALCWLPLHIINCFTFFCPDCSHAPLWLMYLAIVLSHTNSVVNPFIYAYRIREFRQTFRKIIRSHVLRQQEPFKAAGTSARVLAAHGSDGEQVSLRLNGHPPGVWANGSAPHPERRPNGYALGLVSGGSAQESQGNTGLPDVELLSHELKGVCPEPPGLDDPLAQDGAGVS
The target of data set [5] is Alpha-1B adrenergic receptor (Rattus norvegicus) (UniProt P15823). In words: Inhibition of rat adrenergic alpha 1B receptor at 10 uM relative to control.
Chain of Alpha-1B adrenergic receptor (Rattus norvegicus) (P15823 whole entry): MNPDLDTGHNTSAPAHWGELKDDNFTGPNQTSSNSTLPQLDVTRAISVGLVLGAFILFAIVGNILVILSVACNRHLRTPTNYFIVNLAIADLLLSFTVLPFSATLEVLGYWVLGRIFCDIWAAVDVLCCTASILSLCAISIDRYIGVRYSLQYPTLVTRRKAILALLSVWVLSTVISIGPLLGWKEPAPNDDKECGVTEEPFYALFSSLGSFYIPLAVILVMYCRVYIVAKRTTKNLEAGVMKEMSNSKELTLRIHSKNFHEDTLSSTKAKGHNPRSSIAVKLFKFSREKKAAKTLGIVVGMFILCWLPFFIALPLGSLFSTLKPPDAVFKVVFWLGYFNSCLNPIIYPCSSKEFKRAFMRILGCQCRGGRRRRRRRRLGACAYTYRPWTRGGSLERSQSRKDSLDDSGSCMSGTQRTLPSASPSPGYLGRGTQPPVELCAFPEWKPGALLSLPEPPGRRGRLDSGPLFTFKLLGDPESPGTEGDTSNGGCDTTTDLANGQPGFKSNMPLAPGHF
Data set [6] has as its target Androgen receptor (Rattus norvegicus) (UniProt P15207). Briefly: Inhibition of rat androgen receptor at 10 uM relative to control.
The target of data set [7] is Histamine H3 receptor (Homo sapiens) (UniProt Q9Y5N1). Briefly: Inhibition of human histamine H3 receptor at 10 uM relative to control.
Chain of Histamine H3 receptor (Homo sapiens) (Q9Y5N1 whole entry): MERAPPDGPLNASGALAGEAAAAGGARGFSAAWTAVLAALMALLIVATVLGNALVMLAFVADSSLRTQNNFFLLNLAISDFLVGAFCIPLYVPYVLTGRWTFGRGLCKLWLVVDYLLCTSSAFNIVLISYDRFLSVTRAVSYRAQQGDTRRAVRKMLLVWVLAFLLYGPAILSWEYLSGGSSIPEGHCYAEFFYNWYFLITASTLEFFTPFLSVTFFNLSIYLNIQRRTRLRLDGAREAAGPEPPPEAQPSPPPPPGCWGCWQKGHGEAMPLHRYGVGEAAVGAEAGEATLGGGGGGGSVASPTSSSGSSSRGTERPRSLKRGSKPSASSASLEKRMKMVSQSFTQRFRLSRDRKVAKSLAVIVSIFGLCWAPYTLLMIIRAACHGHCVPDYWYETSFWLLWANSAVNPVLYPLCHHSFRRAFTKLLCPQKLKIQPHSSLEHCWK
Data set [8] has as its target Muscarinic acetylcholine receptor M1 (Homo sapiens) (UniProt P11229). In words: Inhibition of human muscarinic M1 receptor at 10 uM relative to control.
Data set [9] has as its target Acetylcholine receptor subunit alpha (Homo sapiens) (UniProt P02708). In words: Inhibition of human alpha1 nAChR bungarotoxin site at 10 uM relative to control.
Data set [10] has as its target Platelet-activating factor receptor (Homo sapiens) (UniProt P25105). In words: Inhibition of human platelet activating factor receptor at 10 uM relative to control.
The species entered for a further data set is Rattus norvegicus. In words: Inhibition of rat P2Y receptor at 10 uM relative to control.
Data set [11] deals with 5-hydroxytryptamine receptor 1A (Homo sapiens) (UniProt P08908). In words: Inhibition of human 5-HT1A receptor at 10 uM relative to control.
Chain of 5-hydroxytryptamine receptor 1A (Homo sapiens) (P08908 whole entry): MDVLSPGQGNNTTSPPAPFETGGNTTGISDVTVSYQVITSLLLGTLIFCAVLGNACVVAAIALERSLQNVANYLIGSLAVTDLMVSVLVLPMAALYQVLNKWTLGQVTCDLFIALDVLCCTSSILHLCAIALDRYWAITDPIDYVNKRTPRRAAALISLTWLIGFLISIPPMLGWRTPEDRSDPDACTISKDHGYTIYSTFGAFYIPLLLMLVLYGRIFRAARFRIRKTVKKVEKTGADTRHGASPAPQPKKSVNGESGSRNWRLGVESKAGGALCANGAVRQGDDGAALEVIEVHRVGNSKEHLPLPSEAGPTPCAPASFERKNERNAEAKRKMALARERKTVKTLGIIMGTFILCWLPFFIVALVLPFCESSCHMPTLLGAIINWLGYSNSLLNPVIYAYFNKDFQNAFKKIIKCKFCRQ

Chain of Muscarinic acetylcholine receptor M1 (Homo sapiens) (P11229 whole entry): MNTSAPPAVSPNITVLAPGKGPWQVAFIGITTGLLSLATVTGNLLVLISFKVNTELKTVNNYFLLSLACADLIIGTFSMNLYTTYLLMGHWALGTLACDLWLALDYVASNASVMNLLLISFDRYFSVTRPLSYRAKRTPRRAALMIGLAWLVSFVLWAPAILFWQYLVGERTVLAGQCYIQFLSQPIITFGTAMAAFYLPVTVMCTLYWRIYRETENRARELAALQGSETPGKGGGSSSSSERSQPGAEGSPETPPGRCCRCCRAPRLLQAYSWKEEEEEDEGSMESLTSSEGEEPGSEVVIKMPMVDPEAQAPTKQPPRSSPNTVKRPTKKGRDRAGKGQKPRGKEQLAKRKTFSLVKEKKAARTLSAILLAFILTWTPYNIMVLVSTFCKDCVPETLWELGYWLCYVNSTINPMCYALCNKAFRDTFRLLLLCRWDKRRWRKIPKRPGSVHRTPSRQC
Chain of Androgen receptor (Rattus norvegicus) (P15207 whole entry S389L): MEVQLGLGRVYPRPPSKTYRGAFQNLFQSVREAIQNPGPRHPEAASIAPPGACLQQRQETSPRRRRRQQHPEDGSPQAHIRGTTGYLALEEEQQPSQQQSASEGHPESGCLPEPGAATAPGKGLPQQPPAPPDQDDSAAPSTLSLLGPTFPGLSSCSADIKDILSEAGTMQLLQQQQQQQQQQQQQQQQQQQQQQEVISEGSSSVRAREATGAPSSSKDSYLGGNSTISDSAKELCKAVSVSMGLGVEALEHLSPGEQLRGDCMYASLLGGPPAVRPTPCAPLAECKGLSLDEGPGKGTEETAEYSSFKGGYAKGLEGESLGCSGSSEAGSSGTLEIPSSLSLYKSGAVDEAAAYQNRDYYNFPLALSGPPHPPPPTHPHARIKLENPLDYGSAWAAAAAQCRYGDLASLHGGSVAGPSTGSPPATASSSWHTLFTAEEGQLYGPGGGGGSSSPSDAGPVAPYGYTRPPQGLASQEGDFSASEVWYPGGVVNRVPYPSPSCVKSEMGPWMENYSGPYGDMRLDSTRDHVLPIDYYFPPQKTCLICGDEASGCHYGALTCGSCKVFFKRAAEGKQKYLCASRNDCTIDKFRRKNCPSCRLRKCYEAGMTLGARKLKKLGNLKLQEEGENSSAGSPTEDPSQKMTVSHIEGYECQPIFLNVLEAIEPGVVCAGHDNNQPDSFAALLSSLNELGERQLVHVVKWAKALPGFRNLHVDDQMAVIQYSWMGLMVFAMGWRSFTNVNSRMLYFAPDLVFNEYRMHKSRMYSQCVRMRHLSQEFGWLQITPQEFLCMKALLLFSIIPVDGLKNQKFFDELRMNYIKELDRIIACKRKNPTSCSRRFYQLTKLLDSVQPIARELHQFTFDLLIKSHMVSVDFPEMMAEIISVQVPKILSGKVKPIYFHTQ
Chain of Metabotropic glutamate receptor 3 (Rattus norvegicus) (P31422 23-879 limits assumed): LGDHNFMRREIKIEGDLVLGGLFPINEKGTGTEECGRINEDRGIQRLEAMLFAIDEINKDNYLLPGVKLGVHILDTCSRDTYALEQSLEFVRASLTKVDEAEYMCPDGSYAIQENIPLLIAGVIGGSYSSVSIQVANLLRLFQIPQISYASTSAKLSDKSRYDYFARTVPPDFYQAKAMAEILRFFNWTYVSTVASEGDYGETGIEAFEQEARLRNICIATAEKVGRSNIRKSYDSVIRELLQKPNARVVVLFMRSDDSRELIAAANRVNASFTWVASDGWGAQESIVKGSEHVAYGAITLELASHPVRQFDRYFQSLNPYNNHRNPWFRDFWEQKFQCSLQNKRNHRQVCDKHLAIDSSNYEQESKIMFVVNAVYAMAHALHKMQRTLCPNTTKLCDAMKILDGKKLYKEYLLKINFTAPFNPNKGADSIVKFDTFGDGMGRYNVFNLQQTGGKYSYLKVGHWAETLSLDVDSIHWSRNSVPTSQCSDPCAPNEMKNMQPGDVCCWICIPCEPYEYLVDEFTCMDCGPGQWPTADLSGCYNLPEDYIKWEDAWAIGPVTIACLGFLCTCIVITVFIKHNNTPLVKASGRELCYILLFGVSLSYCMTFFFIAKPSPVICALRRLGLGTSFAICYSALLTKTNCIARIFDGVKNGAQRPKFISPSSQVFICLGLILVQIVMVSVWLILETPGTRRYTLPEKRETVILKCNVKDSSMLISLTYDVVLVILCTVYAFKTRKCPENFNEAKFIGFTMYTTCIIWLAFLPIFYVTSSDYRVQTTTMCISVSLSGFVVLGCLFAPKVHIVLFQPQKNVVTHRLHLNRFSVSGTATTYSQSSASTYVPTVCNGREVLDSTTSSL
Chain of Platelet-activating factor receptor (Homo sapiens) (P25105 whole entry): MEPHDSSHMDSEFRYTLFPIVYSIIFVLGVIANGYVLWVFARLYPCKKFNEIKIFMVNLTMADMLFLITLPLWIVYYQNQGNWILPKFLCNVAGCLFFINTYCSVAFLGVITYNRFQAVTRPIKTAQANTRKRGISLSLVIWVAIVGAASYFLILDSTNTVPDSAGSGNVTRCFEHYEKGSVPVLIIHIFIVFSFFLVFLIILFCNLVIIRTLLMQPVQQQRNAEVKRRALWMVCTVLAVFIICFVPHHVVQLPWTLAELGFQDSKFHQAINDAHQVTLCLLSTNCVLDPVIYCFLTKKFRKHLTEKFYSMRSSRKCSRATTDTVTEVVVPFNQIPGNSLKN

`C[C@@H](COc1ccn(-c2ccc(F)cc2)c(=O)c1)Oc1ccccc1`: the Emin in [1] stood at 3.33%. Moreover, the pIC50 at Cytochrome P450 3A4 and at Cytochrome P450 2C9 was below 4.52 each time. The compound further gave a free fraction (fraction unbound) at 4 h, 5 µM in [2] of 0.18. For the same compound, the Ratio in data set [3] is recorded as 5. For the same compound, the inhibition in data set [4], in data set [5], in data set [6], in [7], in [8] and in [9] was above 50% each time. The inhibition (in [10]; in the data set filed under Rattus norvegicus; in data set [11]) was above 50% in each case.
